This note sets out measurements from patent publication US7476650B2, “Enzyme inhibition” (Yale University, priority 1999, dated 2009).

Format in all cases: biochemical
The target of test [1] is T1, chymotrypsin-like activity of purified bovine erythrocyte 20S proteasome (Bos taurus, UniProt Q32KL2).
T1 construct: from tissue; host or cells: bovine erythrocytes (red blood cells)
The experiment in a line: Enzyme kinetic assay, chymotrypsin-like activity (Suc-LLVY-AMC). Particulars: for kobs/[I] Chymotrypsin-like: Table 3; for kobs/[I] for chymotryptic-like activity using Suc-LLVY-AMC: Examples 9 and 10, in M-1s-1; for kinact/KI: pH 8, inhibitor concentration range in parentheses. An excerpt:
(§1) We investigated the potency of inhibitors of various length. Mono-, di-,tri- and tetraleucine α′,β′-epoxides were ranked by determination of the kobs/[I] values for inhibition of the chymotrypsin-like, trypsin-like, and PGPH activities of purified bovine erythrocyte 20S proteasome.
(§2) Purified bovine erythrocyte proteasome was enzymatically assayed using a variety of different substrates and inhibitors. In order to evaluate the rates of proteolytic inactivation by inhibitors, kassociation (kobs/[I]) values were determined using fluorogenic peptide substrates over a range of inhibitor concentrations.

For test [2], the target named is T2, trypsin-like activity of purified bovine erythrocyte 20S proteasome (Bos taurus, UniProt Q2TBP0).
T2 construct: from tissue; host or cells: bovine erythrocytes (red blood cells)
As to the kind of experiment: Enzyme kinetic assay, trypsin-like activity (Boc-LRR-AMC). Particulars: for kobs/[I] Trypsin-like: Table 3; for kobs/[I] for tryptic-like activity using Boc-LRR-AMC: Examples 9 and 10; for kinact/KI: pH 8, inhibitor concentration range in parentheses.
Excerpt: as §1, §2

Test [3] concerns the target T3, PGPH activity of purified bovine erythrocyte 20S proteasome (Bos taurus, UniProt Q3MHN0).
T3 construct: from tissue; host or cells: bovine erythrocytes (red blood cells)
The experiment in a line: Enzyme kinetic assay, PGPH activity (Z-LLE-AMC). The note with it: for kobs/[I] PGPH: Table 3; for kobs/[I] for PGPH activity using Z-LLE-AMC: Examples 9 and 10; for kinact/KI: pH 8, inhibitor concentration range in parentheses; for selectivity for the PGPH activity: in words, data not shown for Glu compounds. The procedure: We investigated the potency of inhibitors of various length. Mono-, di-,tri- and tetraleucine α′,β′-epoxides were ranked by determination of the kobs/[I] values for inhibition of the chymotrypsin-like, trypsin-like, and PGPH activities of purified bovine erythrocyte 20S proteasome. Enzyme kinetic assays were performed as described in Example 2.
as §2

Setting [4] is: Table 4, read-out: kassoc = kobs/[I] Chymotrypsin-like activity.
[5] abbreviates: Table 4, read-out: kassoc = kobs/[I] Trypsin-like activity.
The mark [6] stands for this setting: Table 4, read-out: kassoc = kobs/[I] PGPH activity.
Where [7] appears, read: Table 1, read-out: kobs/[I] Chymotrypsin-like activity.
[8] abbreviates: Table 1, read-out: kobs/[I] PGPH activity.

Like-named read-outs stand apart in the source and are kept apart here. Where a SMILES comes first, the peptide text is derived from it. The star is where a group is joined. X1 = CC(C)C[C@H](N*)C(=O)[C@@]1(C)CO1

Consider `CC(=O)NCC(=O)NCC(=O)N1CCC[C@H]1C(=O)N[C@@H](Cc1ccccc1)C(=O)N[C@@H](CC(C)C)C(=O)[C@@]1(C)CO1` [Ac-GGPFL-Ex] (Ac-GGPF-X1), for which, in test [1], the “kobs/[I] Chymotrypsin-like” value was determined as 170 ± 60 M⁻¹ s⁻¹. Further, the “kobs/[I] Trypsin-like” value in test [2] is 1.3 ± 0.3 M⁻¹ s⁻¹. For the same compound, the “kobs/[I] PGPH” value in test [3] worked out at 170 ± 30 M⁻¹ s⁻¹.
`CC(=O)N[C@@H](Cc1ccc(C(=O)c2ccccc2)cc1)C(=O)N[C@@H](CC(C)C)C(=O)N[C@@H](CC(C)C)C(=O)N[C@@H](CC(C)C)C(=O)[C@@]1(C)CO1` [P4 p-benzoylphenyl]: the “kobs/[I] for chymotryptic-like activity using Suc-LLVY-AMC” value (shortened to “kobs/[I] for chymotryptic-like activity”) in test [1] is reported as 23,000. Moreover, the “kobs/[I] for tryptic-like activity using Boc-LRR-AMC” value (shortened to “kobs/[I] for tryptic-like activity”) in test [2] is reported as “not measurable”. Moreover, the “kobs/[I] for PGPH activity using Z-LLE-AMC” value (from here on “kobs/[I] for PGPH activity”) in test [3] was “not measurable”.
With `CC(=O)N[C@@H](CC(C)C)C(=O)N[C@@H](Cc1cccc2ccccc12)C(=O)N[C@@H](CC(C)C)C(=O)N[C@@H](CC(C)C)C(=O)[C@@]1(C)CO1` [P3 1-naphthyl], the “kobs/[I] for chymotryptic-like activity” value in test [1] was 31,000. Further, the “kobs/[I] for tryptic-like activity” value in test [2] is recorded as “not measurable”. Moreover, the “kobs/[I] for PGPH activity” value in test [3] was “not measurable”.
On to `CC(C)C[C@H](NC(=O)[C@@H](N)CCc1ccccc1)C(=O)N[C@@H](Cc1ccccc1)C(=O)N[C@@H](CC(C)C)C(=O)[C@@]1(C)CO1` [compound 18], for which, in test [1], the “kobs/[I] for chymotryptic-like activity” value is 5200. The figures for the kinact/KI in test [1] (setting [4]), in test [2] (setting [5]) and in test [3] (setting [6]) were 5200 M⁻¹ s⁻¹, 580 M⁻¹ s⁻¹ and 11 M⁻¹ s⁻¹, respectively. In test [2], the kobs/[I] for tryptic-like activity using Boc-LRR-AMC was 580 M⁻¹ s⁻¹.
As for isooctanoyl-Ser-Glu-α′,β′-epoxyketone, the “selectivity for the PGPH activity” value in test [3] is given as “poor PGPH-selective inhibitors”.
`CC(=O)N[C@@H](CC(C)C)C(=O)N[C@@H](CC(C)C)C(=O)N[C@@H](CC(C)C)C(=O)N[C@@H](CC(C)C)C(=O)[C@@]1(C)CO1`: the results for the kinact/KI in test [1] (setting [7]) and in test [3] (setting [8]) were 14000 M⁻¹ s⁻¹ and 9.2 M⁻¹ s⁻¹, respectively. In addition, the “kobs/[I] for tryptic-like activity” value in test [2] was “not measurable”.
For isooctanoyl-Thr-Glu-α′,β′-epoxyketone, the “selectivity for the PGPH activity” value in test [3] is given as “poor PGPH-selective inhibitors”.
For `CC(C)C[C@@H](/C=C/S(C)(=O)=O)NC(=O)[C@H](CC(C)C)NC(=O)[C@H](CC(C)C)NC(=O)Cc1cc(N)c(O)c(I)c1` [reference compound], the kinact/KI worked out at 5000 M⁻¹ s⁻¹ in test [1] (setting [4]), 3.4 M⁻¹ s⁻¹ in test [2] (setting [5]) and 4 M⁻¹ s⁻¹ in test [3] (setting [6]).
In the case of `CC[C@H](C)[C@H](NC(C)=O)C(=O)N[C@H](C(=O)N[C@@H](CC(C)C)C(=O)[C@@]1(C)CO1)C(C)C` [Ac-IVL-Ex], the “kobs/[I] Chymotrypsin-like” value in test [1] is 5 ± 0.1 M⁻¹ s⁻¹. Besides, the “kobs/[I] Trypsin-like” value in test [2] came out at 6.7 ± 0.1 M⁻¹ s⁻¹. Further, the “kobs/[I] PGPH” value in test [3] came to 14.6 ± 4.2 M⁻¹ s⁻¹.
In the case of `CC[C@H](C)[C@H](NC(C)=O)C(=O)N[C@H](C(=O)N[C@@H](CCC(=O)O)C(=O)[C@@]1(C)CO1)C(C)C` [Ac-Ile-Val-Glu-α′,β′-epoxyketone], the “selectivity for the PGPH activity” value in test [3] is listed as “did not display any significant selectivity”.
As to `CC(=O)N[C@@H](CC(C)C)C(=O)N[C@@H](CC(C)C)C(=O)[C@@]1(C)CO1`, the kinact/KI in test [1] (setting [7]) was 3.1 M⁻¹ s⁻¹.
As to `CC(=O)N[C@@H](Cc1cccc2ccccc12)C(=O)N[C@@H](CC(C)C)C(=O)N[C@@H](CC(C)C)C(=O)N[C@@H](CC(C)C)C(=O)[C@@]1(C)CO1` [P4 I -naphthyl], in test [1], the “kobs/[I] for chymotryptic-like activity” value is given as 29,000. In test [2], the “kobs/[I] for tryptic-like activity” value is given as “not measurable”. Further, the “kobs/[I] for PGPH activity” value in test [3] is “not measurable”.
Turning to `CC(=O)N[C@@H](CC(C)C)C(=O)N[C@@H](CC(C)C)C(=O)N[C@@H](CC(C)C)C(=O)[C@@]1(C)CO1`, the kinact/KI worked out at 780 M⁻¹ s⁻¹ in test [1] (setting [7]); 5.1 M⁻¹ s⁻¹ in test [2] (Table 1, read-out: kobs/[I] trypsin-like activity); 120 M⁻¹ s⁻¹ in test [3] (setting [8]).
In the case of `CC(=O)NCC(=O)N1CCC[C@H]1C(=O)N[C@@H](Cc1ccccc1)C(=O)N[C@@H](CCC(=O)O)C(=O)[C@@]1(C)CO1` [Ac-Gly-Pro-Phe-Glu-α′,β′-epoxyketone], the “selectivity for the PGPH activity” value in test [3] is given as “did not display any significant selectivity”.
As to “isooctanoyl-Ser-Leu-α′,β′-epoxyketone [Eponemycin, reference compound]”, the “kobs/[I] Chymotrypsin-like” value in test [1] was found to be 58 ± 14 M⁻¹ s⁻¹. In test [2], the “kobs/[I] Trypsin-like” value came out at 17 ± 3 M⁻¹ s⁻¹. Besides, in test [3], the “kobs/[I] PGPH” value was determined as 175 ± 2 M⁻¹ s⁻¹ and the “selectivity for the PGPH activity” value is listed as “modest selectivity toward the PGPH activity”.
For the compound `CC(=O)N[C@@H](Cc1ccccc1)C(=O)N[C@@H](CC(C)C)C(=O)N[C@@H](CC(C)C)C(=O)N[C@@H](CC(C)C)C(=O)[C@@]1(C)CO1` [P4 phenyl], the “kobs/[I] for chymotryptic-like activity” value in test [1] is listed as 37,000. Moreover, in test [2], the kobs/[I] for tryptic-like activity using Boc-LRR-AMC turned out to be 5.5 M⁻¹ s⁻¹. For the same compound, the “kobs/[I] for PGPH activity” value in test [3] is listed as 78.
As to `CC(=O)N[C@@H](C)C(=O)N[C@H](C(=O)N[C@@H](CCC(=O)O)C(=O)[C@@]1(C)CO1)C(C)C` [Ac-Ala-Val-Glu-α′,β′-epoxyketone], the “selectivity for the PGPH activity” value in test [3] is “did not display any significant selectivity”.
On to `CC(=O)N1CCC[C@H]1C(=O)N[C@@H](Cc1ccccc1)C(=O)N[C@@H](CCC(=O)O)C(=O)[C@@]1(C)CO1` [Ac-Pro-Phe-Glu-α′,β′-epoxyketone], for which, in test [3], the “selectivity for the PGPH activity” value is “did not display any significant selectivity”.
Turning to `CC(=O)N[C@@H](CCc1ccccc1)C(=O)N[C@@H](CC(C)C)C(=O)N[C@@H](CC(C)C)C(=O)N[C@@H](CC(C)C)C(=O)[C@@]1(C)CO1` [P4 methylphenyl], in test [1], the “kobs/[I] for chymotryptic-like activity” value is 63,000. In test [2], this compound had a kobs/[I] for tryptic-like activity using Boc-LRR-AMC of 5.4 M⁻¹ s⁻¹. The “kobs/[I] for PGPH activity” value in test [3] is on record as 50.
Regarding `CC(C)C[C@H](NC(=O)[C@H](Cc1ccccc1)NC(=O)c1cnccn1)B(O)O` [reference compound], the kinact/KI in test [1] (setting [4]) was found to be 53000 M⁻¹ s⁻¹; in test [3] (setting [6]), 3200 M⁻¹ s⁻¹.
As to `CC(=O)N1CCC(C(=O)N2CCC[C@H]2C(=O)N[C@@H](Cc2ccccc2)C(=O)N[C@@H](CC(C)C)C(=O)[C@@]2(C)CO2)CC1` [N-acetyl-piperidinecarbonyl-PFL-Ex], the “kobs/[I] Chymotrypsin-like” value in test [1] was 31.2 ± 0.6 M⁻¹ s⁻¹. Moreover, in test [3], the “kobs/[I] PGPH” value amounted to 45.3 ± 2.2 M⁻¹ s⁻¹.
In the same order, the values of `CC(=O)N1CCC[C@H]1C(=O)N1CCC[C@H]1C(=O)N[C@@H](Cc1ccccc1)C(=O)N[C@@H](CC(C)C)C(=O)[C@@]1(C)CO1` [Ac-PPFL-Ex] are 6.4 ± 3.3 M⁻¹ s⁻¹ and 10.6 ± 0.3 M⁻¹ s⁻¹.
The matching figures for `CC(=O)N1CCC[C@H]1C(=O)N[C@@H](Cc1ccccc1)C(=O)N[C@@H](CC(C)C)C(=O)[C@@]1(C)CO1` [Ac-PFL-Ex]: 42 ± 2 M⁻¹ s⁻¹ and 32 ± 6 M⁻¹ s⁻¹.
For `CC(=O)N[C@@H](CC(C)C)C(=O)N[C@@H](CC(C)C)C(=O)N[C@@H](Cc1cccc2ccccc12)C(=O)N[C@@H](CC(C)C)C(=O)[C@@]1(C)CO1` [P2 1-naphthyl], in test [1], the “kobs/[I] for chymotryptic-like activity” value is recorded as 29,000. Also, the “kobs/[I] for tryptic-like activity” value in test [2] is “not measurable”. In test [3], the “kobs/[I] for PGPH activity” value is listed as “not measurable”.
For the compound `CC[C@H](C)[C@H](NC(C)=O)C(=O)N[C@H](C(=O)N[C@H](C(=O)N[C@@H](CCC(=O)O)C(=O)[C@@]1(C)CO1)[C@@H](C)O)[C@@H](C)CC` [Ac-Ile-Ile-Thr-Glu-α′,β′-epoxyketone], the “selectivity for the PGPH activity” value in test [3] is recorded as “did not display any significant selectivity”.
